Measurements reported in article PMC9402538, “Rational design of a sensitivity-enhanced tracer for discovering efficient APC–Asef inhibitors” (Nature Communications, 2022).
Values joined by “and” are separate entries in the source; they are usually repeats but may differ in a detail not shown here. Equal entries are not always repeated. Where two headings read alike, the source gives them in different places. Where a SMILES comes first, the peptide text is derived from it. The star is where a group is joined. Adamantane1carbonyl = O=C(C12CC3CC(CC(C3)C1)C2)*; Thiophene2carbonyl = O=C(c1cccs1)*; Bz = O=C(c1ccccc1)*; X2 = O=C(c1cncs1)*

Experiments:
APC (303–739) = biological target: T1, APC (303–739) (Homo sapiens, UniProt P25054); experiment: FP competitive assay using tracer 7; type: binding; details: for FP(mp): Tracer 7, replicate wells
T1 sequence (P25054 303-739): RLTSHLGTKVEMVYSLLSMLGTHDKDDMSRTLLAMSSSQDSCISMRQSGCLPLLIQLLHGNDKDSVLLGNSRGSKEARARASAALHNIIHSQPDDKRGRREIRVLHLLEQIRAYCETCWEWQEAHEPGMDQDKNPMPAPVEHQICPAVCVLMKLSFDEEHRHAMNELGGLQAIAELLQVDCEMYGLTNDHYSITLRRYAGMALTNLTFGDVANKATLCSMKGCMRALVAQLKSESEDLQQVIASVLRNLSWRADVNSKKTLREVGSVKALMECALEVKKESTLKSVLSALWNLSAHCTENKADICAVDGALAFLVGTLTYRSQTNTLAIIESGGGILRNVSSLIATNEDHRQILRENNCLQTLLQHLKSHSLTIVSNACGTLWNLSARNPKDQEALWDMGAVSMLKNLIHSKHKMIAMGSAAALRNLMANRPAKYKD
Procedure: (§1) FITC-labeled tracer peptides were obtained from Changzhou Kanglong Biotech Ltd. (Changzhou, Jiangsu, China). […]. The FP signal changes upon tracer binding were measured after 1.5 h of incubation using a Synergy neo microplate reader (BioTek Instruments, Inc.) and plotted against the protein concentration. The corresponding EC50 values were generated by fitting the curves with a nonlinear regression model. […]. To make a working solution, APC (303–739) was diluted in FP buffer (50 mM HEPES, pH 7.5, 300 mM NaCl, 1 mM EDTA, 1 mM DTT). The diluted APC protein (91 μL) was combined with a serial dilution of peptides (4 μL) and incubated at room temperature for 1 h, followed by the addition of 5 μL of 400 nM tracer 7. The FP signals were measured after 1.5 h of incubation at room temperature using a Synergy neo microplate reader. Three controls were included on each plate, i.e., blank (without protein and tracer), 100% inhibition (free tracer only), and 0% inhibition (protein/tracer complex only) controls. All experiments were performed in triplicate. The IC50 values of peptides were calculated by nonlinear regression analysis using GraphPad Prism 7.0 software.

APC = biological target: T2, APC (Homo sapiens, UniProt P25054); experiment: FP competitive assay using tracer 1; type: binding; details: for FP(mp): Tracer 1, triplicate raw readings
T2 sequence (P25054 303-739): T1 sequence (P25054 303-739)
Procedure: In our previous study, we established an FP assay for screening APC–Asef inhibitors using FITC-labeled tracer 1 (Ac–^176[…][FITC]^195–NH2)[16]. […]. However, their Kd values measured by isothermal titration calorimetry (ITC) actually vary up to more than 20 times[16],[17]. […].
as §1, with “The diluted APC protein (91 μL) was combined with a serial dilution of peptides (4 μL) and incubated at room temperature for 1 h, followed by the addition of 5 μL of 400 nM tracer 7.” left out

[1] = Repeat 1, Table 3 source data, read-out: IC50(μM) Repeat 1
[2] = Repeat 2, Table 3 source data, read-out: IC50(μM) Repeat 2
[3] = Repeat 3, Table 3 source data, read-out: IC50(μM) Repeat 3
[4] = mean of 3 repeats, Table 3 source data, read-out: IC50(μM) mean
[5] = Supplementary Table 4, read-out: IC50, Tracer 1

| Compound | FP(mp) (APC (303–739); Conc. 0.0061 μM) | FP(mp) (APC (303–739); Conc. 0.0122 μM) | FP(mp) (APC (303–739); Conc. 0.0244 μM) | FP(mp) (APC (303–739); Conc. 0.05 μM) | FP(mp) (APC (303–739); Conc. 0.10 μM) | FP(mp) (APC (303–739); Conc. 0.20 μM) | FP(mp) (APC (303–739); Conc. 0.39 μM) | FP(mp) (APC (303–739); Conc. 0.78 μM) | FP(mp) (APC (303–739); Conc. 1.56 μM) | FP(mp) (APC (303–739); Conc. 3.13 μM) | FP(mp) (APC (303–739); Conc. 6.25 μM) | FP(mp) (APC (303–739); Conc. 12.50 μM) | FP(mp) (APC (303–739); Conc. 25.00 μM) | FP(mp) (APC (303–739); Conc. 50.00 μM) | FP(mp) (APC; Conc. 0.05 μM) | FP(mp) (APC; Conc. 0.10 μM) | FP(mp) (APC; Conc. 0.20 μM) | FP(mp) (APC; Conc. 0.39 μM) | FP(mp) (APC; Conc. 0.78 μM) | FP(mp) (APC; Conc. 1.56 μM) | other results |
| --- | --- | --- | --- | --- | --- | --- | --- | --- | --- | --- | --- | --- | --- | --- | --- | --- | --- | --- | --- | --- | --- |
| CC(C)C[C@H](NC(=O)[C@H](CO)NC(=O)[C@H](CCC(=O)O)NC(=O)CNC(=O)[C@H](C)NC(=O)c1ccccc1)C(=O)N[C@@H](Cc1ccc(O)cc1)C(N)=O [MAI-463] (Bz-AGESLY-NH2) |  |  |  |  |  |  |  |  |  |  |  |  |  |  |  |  |  |  |  |  | IC50 (APC (303–739); IC50, Tracer 7, Supplementary Table 4): 1.3 ± 0.05 µM; IC50 (APC): 730 ± 150 nM |
| CC(C)C[C@H](NC(=O)[C@H](CO)NC(=O)[C@H](CCC(=O)O)NC(=O)CNC(=O)[C@H](C)NC(=O)C12CC3CC(CC(C3)C1)C2)C(=O)N[C@@H](Cc1ccc(O)cc1)C(=O)N[C@@H](CCC(=O)O)C(N)=O [MAI-505] (Adamantane1carbonyl-AGESLYE-NH2) | 310 mp and 307 mp and 309 mp | 303 mp and 302 mp and 307 mp | 307 mp and 305 mp and 308 mp | 302 mp and 304 mp and 307 mp | 294 mp and 293 mp and 295 mp | 282 mp (2×) and 276 mp | 256 mp and 254 mp and 252 mp | 224 mp and 222 mp and 229 mp | 180 mp and 186 mp and 189 mp | 136 mp and 134 mp and 137 mp | 106 mp (2×) and 108 mp | 85 mp and 86 mp and 89 mp | 67 mp and 68 mp and 71 mp | 57 mp and 60 mp and 59 mp | 181 mp | 177 mp and 182 mp and 179 mp | 161 mp and 172 mp and 174 mp | 139 mp and 163 mp and 161 mp | 68 mp and 100 mp and 109 mp | 56 mp and 64 mp and 68 mp | IC50 (APC (303–739); [1]): 1.57 µM; IC50 (APC (303–739); [2]): 1.73 µM; IC50 (APC (303–739); [3]): 1.57 µM; IC50 (APC (303–739); [4]): 1.62 µM; IC50 (APC; [5]): 440 ± 120 nM; FP(mp) (APC; Conc. 3.13 μM): 57 mp and 55 mp and 56 mp; FP(mp) (APC; Conc. 6.25 μM): 52 mp and 51 mp; FP(mp) (APC; Conc. 12.50 μM): 51 mp and 49 mp and 50 mp; FP(mp) (APC; Conc. 25.00 μM): 47 mp and 50 mp; FP(mp) (APC; Conc. 50.00 μM): 49 mp and 51 mp; FP(mp) (APC; Conc. 100.00 μM): 50 mp and 48 mp; FP(mp) (APC; Conc. 200.00 μM): 50 mp and 51 mp; FP(mp) (APC; Conc. 400.00 μM): 50 mp and 49 mp |
| CC(C)C[C@H](NC(=O)[C@H](CO)NC(=O)[C@H](CCC(=O)O)NC(=O)CNC(=O)[C@H](C)NC(=O)c1cccs1)C(=O)N[C@@H](Cc1ccc(O)cc1)C(=O)N[C@@H](CCC(=O)O)C(N)=O [MAI-507] (Thiophene2carbonyl-AGESLYE-NH2) | 306 mp and 304 mp and 305 mp | 299 mp and 301 mp (2×) | 278 mp and 279 mp and 280 mp | 256 mp (2×) and 257 mp | 216 mp and 219 mp (2×) | 178 mp (2×) and 173 mp | 138 mp and 133 mp and 136 mp | 107 mp and 99 mp and 101 mp | 89 mp and 77 mp and 80 mp | 75 mp and 72 mp (2×) | 59 mp and 54 mp and 58 mp | 60 mp (2×) and 54 mp | 54 mp and 51 mp and 52 mp | 57 mp (2×) and 54 mp | 180 mp and 182 mp | 173 mp and 180 mp and 179 mp | 168 mp and 169 mp and 173 mp | 130 mp and 156 mp and 153 mp | 56 mp and 61 mp and 98 mp | 53 mp and 54 mp and 52 mp | IC50 (APC (303–739); IC50(μM) Repeat 1, Repeat 1, Table 3 source data): 0.173 µM; IC50 (APC (303–739); IC50(μM) Repeat 2, Repeat 2, Table 3 source data): 0.162 µM; IC50 (APC (303–739); IC50(μM) Repeat 3, Repeat 3, Table 3 source data): 0.175 µM; IC50 (APC (303–739); IC50(μM) mean, mean of 3 repeats, Table 3 source data): 0.17 µM; IC50 (APC (303–739); IC50 ± SD, tracer 7, APC 25 nM, average of three independent experiments): 0.17 ± 0.007 µM; IC50 (APC): 340 ± 120 nM; FP(mp) (APC; Conc. 3.13 μM): 53 mp and 50 mp and 52 mp; FP(mp) (APC; Conc. 6.25 μM): 50 mp and 51 mp; FP(mp) (APC; Conc. 12.50 μM): 50 mp and 47 mp and 48 mp; FP(mp) (APC; Conc. 25.00 μM): 51 mp and 47 mp and 48 mp; FP(mp) (APC; Conc. 50.00 μM): 49 mp and 47 mp and 48 mp; FP(mp) (APC; Conc. 100.00 μM): 48 mp and 47 mp; FP(mp) (APC; Conc. 200.00 μM): 48 mp; FP(mp) (APC; Conc. 400.00 μM): 49 mp and 48 mp |
| CC(C)C[C@H](NC(=O)[C@H](CO)NC(=O)[C@H](CCC(=O)O)NC(=O)CNC(=O)[C@H](C)NC(=O)c1cncs1)C(=O)N[C@@H](Cc1ccc(O)cc1)C(=O)N[C@@H](CCC(=O)O)C(N)=O [MAI-508] (X2-AGESLYE-NH2) | 306 mp | 306 mp and 305 mp and 307 mp | 290 mp (2×) and 289 mp | 268 mp and 265 mp and 269 mp | 236 mp and 233 mp (2×) | 190 mp and 195 mp and 192 mp | 150 mp and 147 mp and 149 mp | 113 mp (2×) and 114 mp | 85 mp and 90 mp and 86 mp | 73 mp and 71 mp and 74 mp | 65 mp and 60 mp and 61 mp | 61 mp and 56 mp and 59 mp | 52 mp and 55 mp and 57 mp | 58 mp and 50 mp and 54 mp | 185 mp and 183 mp and 179 mp | 180 mp and 181 mp and 176 mp | 173 mp and 176 mp | 162 mp and 161 mp | 105 mp and 98 mp and 106 mp | 54 mp and 56 mp | IC50 (APC (303–739); [1]): 0.221 µM; IC50 (APC (303–739); [2]): 0.194 µM; IC50 (APC (303–739); [3]): 0.241 µM; IC50 (APC (303–739); [4]): 0.219 µM; IC50 (APC; [5]): 480 ± 160 nM; FP(mp) (APC; Conc. 3.13 μM): 52 mp and 48 mp and 49 mp; FP(mp) (APC; Conc. 6.25 μM): 50 mp and 47 mp and 48 mp; FP(mp) (APC; Conc. 12.50 μM): 47 mp and 46 mp; FP(mp) (APC; Conc. 25.00 μM): 50 mp and 48 mp and 46 mp; FP(mp) (APC; Conc. 100.00 μM): 50 mp and 47 mp; FP(mp) (APC; Conc. 200.00 μM): 51 mp and 48 mp and 49 mp; FP(mp) (APC; Conc. 400.00 μM): 51 mp and 49 mp |
